Legend:
[1] = Chemical reductant assay: GSH challenge (cell-free); format: physicochemical; conditions: aq. TE buffer pH 7.4, 37° C., 6 h, GSH 0.01-10 mM
Description: This assay (see FIG. 1) examined the stability of disulfide-based reduction-triggered compounds of the invention when exposed to monothiol reductants, primarily the major physiological cellular monothiol GSH, and dithiol reductants like the disulfide reductant dithiothreitol (DTT), as evaluated in a cell-free assay, to determine whether these compounds can be useful for selective release.
Assay Conditions: A black 96-well plate with black bottom was charged with solutions of fluorophore-releasing reduction-triggered probes that are compounds of the invention (P1, P2, P3, P4 and P5) or that are not compounds of the invention and reveal the performance of prior art systems (X19) (80 μL; 25 μM in aq. TE buffer (pH 7.4) and 1.25% vol DMSO). Solutions of challenge species chosen from the monothiol glutathione (GSH, 0.1-50 mM) and the dithiol reductant dithiothreitol (DTT, 0.1-50 mM) or phosphine reductant tris-(2-carboxyethyl) phosphine (TCEP); (20 μL; 1 mM in aq. TE buffer (pH 7.4) were added and the reaction mixtures were incubated at 37° C. for 6 h while measuring fluorescence intensity over time [F(t)] using a BMG Labtech FLUOstar Omega platereader (λexc=355 nm, Δem=530 nm for PQ-OH-releasing probes X19, P1 and P2; Δexc=485 nm, Δem=530 nm for MF-OH-releasing probes P3 and P4.
Data Representation: F^max is the maximum possible fluorescence increase corresponding to complete reduction-triggered cargo release, i.e. the fluorescence intensity increase from time zero to signal plateau under TCEP incubation PQ-OH-releasing probes. F(t)/F^max(t) thus gives the timecourse measurements of fluorescence intensity, as a fraction of the maximum possible fluorescence signal. F^sat is the endpoint fluorescence intensity increase for each condition, ie. F^sat=(F(6 h)). F^sat/F^max thus gives the assay endpoint fluorescence intensity increase, as a fraction of the maximum possible fluorescence signal. In the GSH timecourse measurements shown in FIG. 1, all datasets annotated with concentrations only (0.01-10 mM) refer to GSH challenges, while datasets for TCEP positive control (100 μM) and no-reductant control (blank) are shown for comparison. The dose-response plots show F^sat/F^max for the different ratios between probe and GSH or probe and DTT concentrations, with a logarithmic horizontal scale.

[2] = target: T1, thioredoxin reductase 1 (TrxR1) (Homo sapiens, UniProt Q16881); assay: Enzymatic activation assay: NADPH/TrxR1 without Trx; format: biochemical; conditions: NADPH/TrxR1, no Trx added, 37° C., 6 h
T1 sequence (Q16881 1-499 isoform Q16881-5): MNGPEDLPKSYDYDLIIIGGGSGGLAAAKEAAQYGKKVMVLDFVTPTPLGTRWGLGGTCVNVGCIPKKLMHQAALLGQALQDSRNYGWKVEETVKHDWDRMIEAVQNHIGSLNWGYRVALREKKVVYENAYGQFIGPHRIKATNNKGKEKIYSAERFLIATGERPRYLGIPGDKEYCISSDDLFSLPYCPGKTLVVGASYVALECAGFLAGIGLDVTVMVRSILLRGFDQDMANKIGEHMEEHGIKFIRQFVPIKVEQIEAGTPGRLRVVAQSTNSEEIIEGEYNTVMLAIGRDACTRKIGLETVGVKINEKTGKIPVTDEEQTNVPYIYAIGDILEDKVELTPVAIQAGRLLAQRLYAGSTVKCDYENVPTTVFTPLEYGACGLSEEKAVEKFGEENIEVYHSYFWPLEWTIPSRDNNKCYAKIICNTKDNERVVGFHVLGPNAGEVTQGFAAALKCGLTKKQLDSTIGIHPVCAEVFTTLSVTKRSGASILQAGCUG
Description: (§1) This assay (see FIG. 2) examined the resistance of disulfide-based reduction-triggered compounds to the major cellular enzymatic systems that maintain redox homeostasis and are capable of reducing disulfides, evaluated in a cell-free assay, to see if these compounds can be useful for selective enzyme-triggered release.
(§2) Assay conditions: A black 96-well plate with black bottom was charged with solutions of fluorophore-releasing reduction-triggered probes that are compounds of the invention (P1, P2) or that are not compounds of the invention and reveal the performance of prior art systems (X19) (50 μL; 40 μM in aq. TE buffer (pH 7.4) and 4 μL DMSO). Separately, master mixes (30 μL in aq. TE buffer (pH 7.4)) containing mixtures of the proteins human recombinant thioredoxin 1 (Trx1, 0.166-16.66 μM) or thioredoxin 2 (Trx2, 3.3 μM), or human recombinant glutaredoxin 1 (“Grx1”, 3.3 μM) or glutaredoxin 2 (Grx2, 3.3 μM) and/or oxidoreductases human recombinant thioredoxin reductase 1 (TrxR1, 0.07 μM), the thioredoxin reductase Secys498Cys mutant (TrxR1-U498C, 0.07 μM), thioredoxin reductase 2 (TrxR2, 0.07 μM) or human recombinant glutathione reductase (GR, 0.07 μM), and/or GSH (3.3 μM) were prepared. Note that TrxR1 (U498C) has decreased reducing power compared to TrxR1 due to the mutation of the key vicinal selenothiol/thiol into a vicinal dithiol, but it still reduces Trx1. […]
(§3) Data Representation: (F(t)-F^NADPH(t)) is the fluorescence intensity of the test solution at time t, from which is subtracted a background fluorescence level also at time t from a solution with NADPH (which itself is fluorescent, and is present in 10-fold higher concentration than the probe) and with the same protein mixture but without the probe. F^max(t) is the maximum possible fluorescence intensity value at time t, determined by incubation with TCEP (100 μM)) similarly as for the chemical reductant assay. (F(t)−F^NADPH(t))/F^max(t) thus gives the timecourse of fluorescence signal, as a fraction of the maximum possible fluorescence signal. […]

[3] = target: T2, NADPH/TrxR1/Trx1 (Homo sapiens, UniProt P10599); assay: Enzymatic activation assay: NADPH/TrxR1/Trx1 system; format: biochemical; conditions: NADPH/TrxR1 plus Trx1, 37° C., 6 h
T2 sequence (P10599 1-105): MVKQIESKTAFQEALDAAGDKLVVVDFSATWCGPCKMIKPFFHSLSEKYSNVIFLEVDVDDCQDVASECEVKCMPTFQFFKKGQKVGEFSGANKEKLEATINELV
Description: as §1, §2, §3

[4] = target: T3, thioredoxin 2 (Trx2) (Homo sapiens, UniProt Q99757); assay: Enzymatic activation assay: NADPH/TrxR/Trx2 system; format: biochemical; conditions: NADPH/TrxR plus Trx2, 37° C., 6 h
T3 sequence (Q99757 60-166): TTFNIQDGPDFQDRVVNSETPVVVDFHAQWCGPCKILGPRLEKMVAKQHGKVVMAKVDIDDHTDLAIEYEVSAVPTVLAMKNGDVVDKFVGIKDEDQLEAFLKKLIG
Description: as §1
(§4) Assay conditions: A black 96-well plate with black bottom was charged with solutions of fluorophore-releasing reduction-triggered probes that are compounds of the invention (P1, P2) or that are not compounds of the invention and reveal the performance of prior art systems (X19) (50 μL; 40 μM in aq. TE buffer (pH 7.4) and 4 μL DMSO). […]
as §3

[5] = target: thioredoxin reductase 2 (TrxR2) (Homo sapiens, UniProt Q9NNW7); assay: Enzymatic activation assay: NADPH/TrxR2 without Trx; format: biochemical; conditions: NADPH/TrxR2, no Trx added, 37° C., 6 h
Description: as §1, §4, §3

Chain of thioredoxin reductase 2 (TrxR2) (Q9NNW7 37-524): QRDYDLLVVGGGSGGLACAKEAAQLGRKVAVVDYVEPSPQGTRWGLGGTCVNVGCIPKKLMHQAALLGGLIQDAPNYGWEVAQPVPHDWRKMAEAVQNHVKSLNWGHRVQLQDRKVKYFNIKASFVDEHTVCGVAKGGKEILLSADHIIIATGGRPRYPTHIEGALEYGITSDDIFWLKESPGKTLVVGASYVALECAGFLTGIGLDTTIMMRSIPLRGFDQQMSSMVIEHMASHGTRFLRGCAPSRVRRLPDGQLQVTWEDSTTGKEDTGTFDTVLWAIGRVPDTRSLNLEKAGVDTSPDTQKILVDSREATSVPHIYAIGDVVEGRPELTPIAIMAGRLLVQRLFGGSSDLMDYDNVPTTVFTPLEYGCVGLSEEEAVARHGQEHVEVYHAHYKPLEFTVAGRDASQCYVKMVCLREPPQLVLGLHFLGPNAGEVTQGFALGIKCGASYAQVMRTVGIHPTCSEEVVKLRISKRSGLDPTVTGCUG

## O=C(Oc1ccc(Cl)cc1-c1nc2ccc(Cl)cc2c(=O)[nH]1)N1CCC[C@@H]2CSSC[C@H]21 (racemic) [Compound P1, 4-chloro-2-(6-chloro-4-oxo-3,4-dihydroquinazolin-2-yl)phenyl-(trans)-hexahydro-[1,2]dithiino[4,5-b]pyridine-1(2H)-carboxylate]
[1]
  cargo release (fluorescence) when challenged with monothiol reductant GSH: do not release cargo
[2]
  cargo release / processing by TrxR1: not processed
[3]
  cargo release / processing by TrxR plus Trx1: processed when additional high levels of Trx1 and Trx2 are added
[4]
  cargo release / processing by TrxR plus Trx2: processed when additional high levels of Trx1 and Trx2 are added
[5]
  cargo release / processing by TrxR2: not processed

## 4-chloro-2-(6-chloro-4-oxo-3,4-dihydroquinazolin-2-yl)phenyl methyl(2-((2-(methyl amino)ethyl)disulfaneyl)ethyl)carbamate [Compound X19, reference compound]
[1]
  cargo release (fluorescence) when challenged with monothiol reductant GSH: already unstable to the monothiol GSH
[2]
  cargo release / processing by TrxR1: rapidly degraded
[3]
  cargo release / processing by TrxR plus Trx1: enhanced reaction kinetics

## O=C(Oc1ccc(Cl)cc1-c1nc2ccc(Cl)cc2c(=O)[nH]1)N1CCC[C@@H]2CSSC[C@@H]21 (racemic) [Compound P2, 4-chloro-2-(6-chloro-4-oxo-3,4-dihydroquinazolin-2-yl)phenyl-(cis)-hexahydro-[1,2]dithiino[4,5-b]pyridine-1(2H)-carboxylate]
[1]
  cargo release (fluorescence) when challenged with monothiol reductant GSH: do not release cargo
[2]
  cargo release / processing by TrxR1: not processed
[3]
  cargo release / processing by TrxR plus Trx1: processed when additional high levels of Trx1 and Trx2 are added
[4]
  cargo release / processing by TrxR plus Trx2: processed when additional high levels of Trx1 and Trx2 are added
[5]
  cargo release / processing by TrxR2: not processed

— patent US20240207414A1, “DISULFIDE-BASED PRODRUG COMPOUND” (Ludwig-Maximilians-Universitat Munchen, priority 2021, published 2024)
